We go through ten compounds from patent publication US20230138851A1, “NOVEL ALKYNE DERIVATIVES” (CARNA BIOSCIENCES, INC., priority 2020, published 2023).

Bounds are passed on as bounds.

What all share (format): biochemical
For one experiment, the target named is T1, DYRK1B (Homo sapiens, UniProt Q9Y463).
T1 construct: purchased Carna Biosciences, Inc. 04-131
Put plainly: Inhibition test on activity of DYRK family, mobility shift assay (MSA), DYRK1B. Also on record: Inhibitory Activity 1b (IC50 against DYRK1B): scale not given here. Conditions: ATP 200 μM, FITC-labeled DYRKtide peptide substrate, room temperature 1 hour. On the procedure: [Inhibition Test on Activity of DYRK Family (DYRK1A, DYRK1B, DYRK2, and […])]
(Method for Measuring Kinase Activity)
The kinase activity was measured by mobility shift assay (MSA) method using QuickScout Screening Assist™ MSA (commercially available kit manufactured by Carna Biosciences, Inc.). The substrate of the kinase reaction used was an FITC-labeled DYRKtide peptide included in the kit. An assay buffer [20 mM HEPES, 0.01% Triton X-100™, 2 mM dithiothreitol, pH 7.5] was used to create a substrate mixture solution with a substrate (4 μM), MgCl2 (20 mM), and ATP (DYRK1A: 100 μM; DYRK1B: 200 μM; DYRK2: 40 μM; and DYRK3: 20 μM). In addition, kinases (DYRK1A: manufactured by Carna Biosciences, Inc., Cat. No. 04-130; DYRK1B: manufactured by Carna Biosciences, Inc., Cat. No. 04-131; DYRK2; manufactured by Carna Biosciences, Inc., Cat. No. 04-132; and DYRK3; manufactured by Carna Biosciences, Inc., Cat. No. 04-133) were diluted with the assay buffer to prepare enzyme solutions (DYRK1A: 0.2 ng/μL; DYRK1B: 0.08 ng/μL; DYRK2: 0.04 ng/μL; and DYRK3: 0.25 ng/μL). The 10 mM solution of the test compound in DMSO was further diluted with DMSO to 10 levels of the concentration (0.00003 mM, 0.0001 mM, 0.0003 mM, 0.001 mM, 0.003 mM, 0.01 mM, 0.03 mM, 0.1 mM, 0.3 mM, and 1 mM), each of which was subjected to 25-fold dilution with the assay buffer to obtain a drug solution (4% DMSO solution). 5 μL of the drug solution or a control solution (4% DMSO-assay buffer), 5 μL of the substrate mixture solution, and 10 μL of the enzyme solution were mixed in the wells of a polypropylene 384-well plate and allowed to react at room temperature for 1 hour, and then the reaction was quenched by adding 60 μL of the termination buffer included in the kit. Subsequently, the quantities of the substrates (S) and the phosphorylated substrate (P) in the reaction solution were measured using LabChip EZ Reader II system (manufactured by Caliper Life Sciences) according to the protocol of the assay kit.
(Method for Evaluating Inhibitory Activity)
The heights of the peaks of the “substrate” and the “phosphorylated substrate” were expressed as S and P, respectively, and a blank containing the assay buffer instead of the enzyme solution was also measured.
The inhibition rate (%) of the test compound was calculated according to the following equation:
Inhibition rate (%)=(1−(C−A)/(B−A))×100
wherein, A, B, and C represent P/(P+S) of the blank well, P/(P+S) of the control solution well, and P/(P+S) of the compound-containing well, respectively.
The IC50 value was calculated via a regression analysis of the inhibition rate and the test compound concentration (logarithmic value).
The inhibiting activities of representative compounds of the present invention are shown against DYRK1A, DYRK1B, DYRK2, and DYRK3 in Tables 7 and 8. The kinase activity inhibitory effect was indicated with the mark *** at an IC50 value of less than 0.01 μM; the mark ** at 0.01 μM or more and less than 0.1 μM; the mark * at 0.1 μM or more and less than 1 μM; and the mark — at 1 μM or more (N.D. indicates not measured).

A further experiment deals with T2, DYRK2 (Homo sapiens, UniProt Q92630).
T2 construct: purchased Carna Biosciences, Inc. 04-132
T2 sequence (Q92630 1-601): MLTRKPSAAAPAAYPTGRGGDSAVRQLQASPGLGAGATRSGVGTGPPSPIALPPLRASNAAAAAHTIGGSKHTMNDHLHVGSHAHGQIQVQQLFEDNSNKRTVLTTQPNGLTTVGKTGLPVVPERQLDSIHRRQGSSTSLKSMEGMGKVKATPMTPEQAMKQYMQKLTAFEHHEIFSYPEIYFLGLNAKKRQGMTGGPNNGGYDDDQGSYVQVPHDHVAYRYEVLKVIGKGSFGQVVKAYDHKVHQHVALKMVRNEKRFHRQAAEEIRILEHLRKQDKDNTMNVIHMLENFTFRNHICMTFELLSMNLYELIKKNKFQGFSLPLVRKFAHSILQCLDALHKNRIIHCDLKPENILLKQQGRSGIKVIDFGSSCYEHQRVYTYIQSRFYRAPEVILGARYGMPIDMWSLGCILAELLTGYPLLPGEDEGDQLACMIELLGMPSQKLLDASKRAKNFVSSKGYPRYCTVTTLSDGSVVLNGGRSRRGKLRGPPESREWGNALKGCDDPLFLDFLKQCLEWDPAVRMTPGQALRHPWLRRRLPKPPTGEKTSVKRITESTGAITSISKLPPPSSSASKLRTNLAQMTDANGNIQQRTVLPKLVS
Put plainly: Inhibition test on activity of DYRK family, mobility shift assay (MSA), DYRK2. As to conditions: ATP 40 μM, FITC-labeled DYRKtide peptide substrate, room temperature 1 hour; for IC50: read-out: Inhibitory Activity 2 (IC50 against DYRK2). In outline:
(§1)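 FITC-DYRKtide phosphorylation in 20 mM HEPES pH 7.5 with MgCl2; ATP in the substrate mix was 100 μM (DYRK1A), 200 μM (DYRK1B), 40 μM (DYRK2) or 20 μM (DYRK3). Reactions ran 1 h at room temperature; inhibition from P/(P+S) versus blank and DMSO control, IC50 by regression on log concentration.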

A further experiment concerns the target T3, DYRK3 (Homo sapiens, UniProt O43781).
T3 construct: purchased Carna Biosciences, Inc. 04-133
T3 sequence (O43781 1-588): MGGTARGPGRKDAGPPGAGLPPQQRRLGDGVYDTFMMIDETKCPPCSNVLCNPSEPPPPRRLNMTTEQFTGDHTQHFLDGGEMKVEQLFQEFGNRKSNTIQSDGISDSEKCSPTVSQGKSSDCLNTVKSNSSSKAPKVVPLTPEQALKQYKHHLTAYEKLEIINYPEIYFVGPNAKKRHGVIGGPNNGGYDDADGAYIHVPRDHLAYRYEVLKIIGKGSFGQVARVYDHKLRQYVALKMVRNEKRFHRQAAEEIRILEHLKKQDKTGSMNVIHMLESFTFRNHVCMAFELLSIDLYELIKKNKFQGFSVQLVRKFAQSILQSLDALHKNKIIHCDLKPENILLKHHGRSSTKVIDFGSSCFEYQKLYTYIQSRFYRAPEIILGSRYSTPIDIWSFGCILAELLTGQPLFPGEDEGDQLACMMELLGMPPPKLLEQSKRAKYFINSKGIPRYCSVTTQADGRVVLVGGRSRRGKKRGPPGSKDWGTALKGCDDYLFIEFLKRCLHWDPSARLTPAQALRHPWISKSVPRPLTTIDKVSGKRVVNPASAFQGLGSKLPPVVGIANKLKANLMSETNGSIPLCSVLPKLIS
Put plainly: Inhibition test on activity of DYRK family, mobility shift assay (MSA), DYRK3. As to conditions: ATP 20 μM, FITC-labeled DYRKtide peptide substrate, room temperature 1 hour; for IC50: read-out: Inhibitory Activity 3 (IC50 against DYRK3). Summed up:
as §1

Another experiment deals with T4, DYRK1A (Homo sapiens, UniProt Q13627).
T4 construct: purchased Carna Biosciences, Inc. 04-130
Put plainly: Inhibition test on activity of DYRK family, mobility shift assay (MSA), DYRK1A. As to conditions: ATP 100 μM, FITC-labeled DYRKtide peptide substrate, room temperature 1 hour. Summed up:
as §1

T1 sequence (Q9Y463 whole entry): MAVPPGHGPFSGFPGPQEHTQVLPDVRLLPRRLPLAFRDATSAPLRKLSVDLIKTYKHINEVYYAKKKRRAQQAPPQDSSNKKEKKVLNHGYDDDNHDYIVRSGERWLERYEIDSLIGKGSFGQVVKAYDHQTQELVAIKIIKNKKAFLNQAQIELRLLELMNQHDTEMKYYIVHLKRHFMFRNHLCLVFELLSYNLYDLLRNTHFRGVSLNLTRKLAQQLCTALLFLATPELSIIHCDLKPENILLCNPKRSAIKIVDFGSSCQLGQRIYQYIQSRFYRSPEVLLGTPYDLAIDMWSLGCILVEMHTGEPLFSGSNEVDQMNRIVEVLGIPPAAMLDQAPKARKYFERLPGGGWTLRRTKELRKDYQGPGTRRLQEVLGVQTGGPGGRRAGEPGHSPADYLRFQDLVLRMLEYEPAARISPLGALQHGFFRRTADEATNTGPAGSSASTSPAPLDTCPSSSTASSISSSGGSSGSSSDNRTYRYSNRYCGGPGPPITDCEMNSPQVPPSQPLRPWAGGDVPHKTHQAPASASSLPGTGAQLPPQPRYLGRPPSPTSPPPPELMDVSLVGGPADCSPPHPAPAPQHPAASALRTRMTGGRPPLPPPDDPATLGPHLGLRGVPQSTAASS

Turning to `CC#CC1CNC(=O)N1c1nc2c(ccc3ncn(CCO)c32)s1` (racemic) [Example 31, (RS)-1-[8-(2-hydroxyethyl)-8H-imidazo[4′,5′:5,6]benz[1,2-d]thiazol-2-yl]-5-(prop-1-yn-1-yl)imidazolidin-2-one], the “Inhibitory Activity 1b (IC50 against DYRK1B)” value (“Inhibitory Activity 1b” for short) on DYRK1B is on record as “* * *”. The IC50 on DYRK2 and at DYRK3 was 0.1 to 1 µM in each case. Moreover, the “Inhibitory Activity 1a (IC50 against DYRK1A)” value (“Inhibitory Activity 1a” for short) on DYRK1A was “* * *”.
For `CC#CC1CNC(=O)N1c1nc2c3c(ccc2s1)OCCN3C(C)=O` (racemic) [Example 39, (RS)-1-(9-acetyl-8,9-dihydro-7H-thiazolo[4′,5′:3,4]benz[1,2-b][1,4]oxazin-2-yl)-5-(prop-1-yn-1-yl)imidazolidin-2-one], the half-maximal inhibitory concentration (IC50) on DYRK1B (read-out: Inhibitory Activity 1b (IC50 against DYRK1B)) was at least 1 µM; at DYRK2 it was at least 1 µM; at DYRK3, at least 1 µM; at DYRK1A (read-out: Inhibitory Activity 1a (IC50 against DYRK1A)) it was 0.1 to 1 µM.
As for `CC#CC1CNC(=O)N1c1nc2c(ccc3ncn(CCOC)c32)s1` (racemic) [Example 33, (RS)-1-[8-(2-methoxyethyl)-8H-imidazo[4′,5′:5,6]benz[1,2-d]thiazol-2-yl]-5-(prop-1-yn-1-yl)imidazolidin-2-one], the “Inhibitory Activity 1b” value on DYRK1B was “* *”. For the same compound, the IC50 on DYRK2 and on DYRK3 was 0.1 to 1 µM in each case. Further, on DYRK1A, the “Inhibitory Activity 1a” value was “* *”.
Turning to `CC#C[C@@H]1CNC(=O)N1c1nc2c3c(ccc2s1)OCO3` [Example 2, (R)-1-([1,3]dioxolo[4′,5′:5,6]benzo[1,2-d]thiazol-7-yl)-5-(1-propyn-1-yl)imidazolidin-2-one], the “Inhibitory Activity 1b” value at DYRK1B is recorded as “* * *”. On DYRK2, the “Inhibitory Activity 2 (IC50 against DYRK2)” value was “* *”. Further, on DYRK3, the “Inhibitory Activity 3 (IC50 against DYRK3)” value was “* *”. Also, on DYRK1A, the “Inhibitory Activity 1a” value is “* * *”.
On to `CC#CC1CNC(=O)N1c1nc2c3c(ccc2s1)OCO3` (racemic) [Example 1, (RS)-1-([1,3]dioxolo[4′,5′:5,6]benzo[1,2-d]thiazol-7-yl)-5-(prop-1-yn-1-yl)imidazolidin-2-one], for which, at DYRK1B, the “Inhibitory Activity 1b” value is given as “* * *”. In addition, the 50% inhibitory concentration (IC50) on DYRK2 is 0.1 to 1 µM. Further, the “Inhibitory Activity 3 (IC50 against DYRK3)” value at DYRK3 is given as “* *”. Further, at DYRK1A, the “Inhibitory Activity 1a” value is “* * *”.
Regarding `CC#CC1CNC(=O)N1c1nc2c(ccc3ncccc32)s1` (racemic) [Example 27, (RS)-5-(prop-1-yn-1-yl)-1-(thiazolo[4,5-f]quinolin-2-yl)imidazolidin-2-one], the “Inhibitory Activity 1b” value on DYRK1B is “* * *”. The concentration for half-maximal inhibition (IC50) on DYRK2 is 0.1 to 1 µM. Besides, the “Inhibitory Activity 3 (IC50 against DYRK3)” value on DYRK3 is listed as “* *”. Also, the “Inhibitory Activity 1a” value at DYRK1A was “* **”.
For the compound `CC#CC1CNC(=O)N1c1nc2c3c(ccc2s1)OCCN3` (racemic) [Example 38, (RS)-1-(8,9-dihydro-7H-thiazolo[4′,5′:3,4]benz[1,2-b][1,4]oxazin-2-yl)-5-(prop-1-yn-1-yl)imidazolidin-2-one], the “Inhibitory Activity 1b” value on DYRK1B is recorded as “* * *”. Also, the IC50 at DYRK2 and at DYRK3 was 0.1 to 1 µM throughout. Besides, the “Inhibitory Activity 1a” value at DYRK1A is given as “* * *”.
For `CC#CC1CNC(=O)N1c1nc2c3c(ccc2s1)OCCN3C` (racemic) [Example 25, (RS)-1-(9-methyl-8,9-dihydro-7H-thiazolo[4′,5′;3,4]benz[1,2-b][1,4]oxazin-2-yl)-5-(prop-1-yn-1-yl)imidazolidin-2-one], the “Inhibitory Activity 1b” value at DYRK1B was “* * *”. In addition, the IC50 at DYRK2 and on DYRK3 was 0.1 to 1 µM in each case. Further, on DYRK1A, the “Inhibitory Activity 1a” value was “* * *”.
For `CC#CC1CNC(=O)N1c1nc2c(ccc3nnn(C)c32)s1` (single isomer, unassigned) [Example 30, 1-(1-methyl-1H-thiazolo[4′,5′:3,4]benz[1,2-d][1,2,3]triazol-7-yl)-5-(prop-1-yn-1-yl)imidazolidin-2-one], the “Inhibitory Activity 1b” value on DYRK1B is “* * *”. The concentration for half-maximal inhibition (IC50) at DYRK2 and on DYRK3 was 0.1 to 1 µM each time. In addition, the “Inhibitory Activity 1a” value at DYRK1A is “* * *”.
`CC#CC1CNC(=O)N1c1nc2c3c(ccc2s1)OCC3` (racemic) [Example 8, (RS)-1-(7,8-dihydrobenzofuro[4,5-d]thiazol-2-yl)-5-(prop-1-yn-1-yl)imidazolidin-2-one]: the “Inhibitory Activity 1b” value at DYRK1B is on record as “* * *”. Further, the 50% inhibitory concentration (IC50) on DYRK2 is 0.1 to 1 µM. Besides, the “Inhibitory Activity 3 (IC50 against DYRK3)” value on DYRK3 is “* *”. Moreover, the “Inhibitory Activity 1a” value at DYRK1A is “* * *”.

As usually defined, the IC50 is the concentration that inhibits the measured activity by half.
